In one assay the test system is LNCaP. In words: Antiproliferative activity against human LNCaP cells assessed as reduction in cell viability by CellTitre-Glo assay. The class given is functional, cell-based.
Assay [1] concerns the target Protein cereblon/Histone acetyltransferase p300 (Homo sapiens) (UniProt Q09472+Q96SW2). In words: Protac activity at E3 ubiquitin ligase/P300 in human LNcaP cells assessed as degradation of P300 at 10 nM by immunoblotting analysis relative to control. The class given is cell-based.

SMILES strings stand for the structures.

Protein cereblon/Histone acetyltransferase p300 (Homo sapiens), sequence (Q09472 2-2414 limits assumed): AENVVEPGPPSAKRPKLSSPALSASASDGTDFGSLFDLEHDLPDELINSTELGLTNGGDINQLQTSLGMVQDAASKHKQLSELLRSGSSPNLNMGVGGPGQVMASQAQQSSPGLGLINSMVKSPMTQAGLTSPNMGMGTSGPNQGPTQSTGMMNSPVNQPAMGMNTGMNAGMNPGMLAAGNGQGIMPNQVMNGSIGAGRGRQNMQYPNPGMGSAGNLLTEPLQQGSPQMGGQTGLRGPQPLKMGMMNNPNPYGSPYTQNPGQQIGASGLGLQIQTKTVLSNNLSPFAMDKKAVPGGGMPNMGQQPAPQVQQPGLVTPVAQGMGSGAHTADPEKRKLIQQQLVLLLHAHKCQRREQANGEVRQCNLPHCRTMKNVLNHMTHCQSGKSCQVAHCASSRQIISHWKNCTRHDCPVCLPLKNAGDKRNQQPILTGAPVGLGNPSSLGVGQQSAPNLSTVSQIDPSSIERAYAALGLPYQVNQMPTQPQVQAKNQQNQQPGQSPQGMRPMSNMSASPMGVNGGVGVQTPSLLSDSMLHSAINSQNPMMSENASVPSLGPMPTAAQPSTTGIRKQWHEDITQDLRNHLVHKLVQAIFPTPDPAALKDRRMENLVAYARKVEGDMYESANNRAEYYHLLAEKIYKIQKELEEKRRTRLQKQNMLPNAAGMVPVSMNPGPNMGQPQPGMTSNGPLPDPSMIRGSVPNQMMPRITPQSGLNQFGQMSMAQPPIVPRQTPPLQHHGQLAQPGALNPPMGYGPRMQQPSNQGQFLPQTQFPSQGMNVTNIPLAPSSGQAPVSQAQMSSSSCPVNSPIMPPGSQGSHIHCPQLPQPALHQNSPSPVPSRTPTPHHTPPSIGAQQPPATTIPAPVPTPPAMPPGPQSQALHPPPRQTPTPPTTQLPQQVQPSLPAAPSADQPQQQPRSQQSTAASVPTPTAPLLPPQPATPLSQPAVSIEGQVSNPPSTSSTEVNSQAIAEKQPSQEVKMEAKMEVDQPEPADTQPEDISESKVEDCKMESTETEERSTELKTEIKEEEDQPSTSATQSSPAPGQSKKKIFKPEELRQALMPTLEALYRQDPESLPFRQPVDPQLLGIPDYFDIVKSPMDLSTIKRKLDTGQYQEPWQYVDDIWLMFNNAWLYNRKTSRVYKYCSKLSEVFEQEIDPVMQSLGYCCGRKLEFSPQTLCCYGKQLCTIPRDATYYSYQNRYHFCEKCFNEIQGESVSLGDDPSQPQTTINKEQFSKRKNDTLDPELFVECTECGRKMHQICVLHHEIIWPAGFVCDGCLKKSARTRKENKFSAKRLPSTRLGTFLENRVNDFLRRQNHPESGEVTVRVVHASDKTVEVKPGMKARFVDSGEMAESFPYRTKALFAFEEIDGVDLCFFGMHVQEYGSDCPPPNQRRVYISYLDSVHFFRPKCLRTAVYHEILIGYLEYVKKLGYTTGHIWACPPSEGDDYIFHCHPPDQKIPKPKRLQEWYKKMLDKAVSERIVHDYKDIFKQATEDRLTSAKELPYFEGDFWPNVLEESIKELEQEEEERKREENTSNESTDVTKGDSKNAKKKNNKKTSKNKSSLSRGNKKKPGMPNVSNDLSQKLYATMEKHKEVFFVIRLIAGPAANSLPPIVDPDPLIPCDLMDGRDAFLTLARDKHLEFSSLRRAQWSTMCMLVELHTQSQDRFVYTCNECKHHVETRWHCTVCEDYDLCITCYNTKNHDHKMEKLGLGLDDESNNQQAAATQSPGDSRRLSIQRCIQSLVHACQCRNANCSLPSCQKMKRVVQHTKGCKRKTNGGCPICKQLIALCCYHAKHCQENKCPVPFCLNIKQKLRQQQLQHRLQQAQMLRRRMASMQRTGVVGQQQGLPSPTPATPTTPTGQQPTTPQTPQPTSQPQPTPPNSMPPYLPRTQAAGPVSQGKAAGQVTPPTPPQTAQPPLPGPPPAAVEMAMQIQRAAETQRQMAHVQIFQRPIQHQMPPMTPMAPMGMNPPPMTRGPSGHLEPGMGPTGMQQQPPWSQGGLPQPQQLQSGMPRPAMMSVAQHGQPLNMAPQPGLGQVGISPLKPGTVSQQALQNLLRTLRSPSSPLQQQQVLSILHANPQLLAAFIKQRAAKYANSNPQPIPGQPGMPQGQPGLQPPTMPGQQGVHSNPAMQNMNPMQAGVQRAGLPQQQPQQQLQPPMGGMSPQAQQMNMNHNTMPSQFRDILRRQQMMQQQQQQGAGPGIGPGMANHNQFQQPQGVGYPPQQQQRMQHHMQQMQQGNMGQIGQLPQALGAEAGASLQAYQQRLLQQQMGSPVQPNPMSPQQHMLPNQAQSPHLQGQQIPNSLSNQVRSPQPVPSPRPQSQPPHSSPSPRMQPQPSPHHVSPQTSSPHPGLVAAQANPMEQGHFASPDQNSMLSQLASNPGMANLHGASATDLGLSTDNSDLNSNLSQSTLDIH
Protein cereblon/Histone acetyltransferase p300 (Homo sapiens), sequence (Q96SW2 whole entry partner): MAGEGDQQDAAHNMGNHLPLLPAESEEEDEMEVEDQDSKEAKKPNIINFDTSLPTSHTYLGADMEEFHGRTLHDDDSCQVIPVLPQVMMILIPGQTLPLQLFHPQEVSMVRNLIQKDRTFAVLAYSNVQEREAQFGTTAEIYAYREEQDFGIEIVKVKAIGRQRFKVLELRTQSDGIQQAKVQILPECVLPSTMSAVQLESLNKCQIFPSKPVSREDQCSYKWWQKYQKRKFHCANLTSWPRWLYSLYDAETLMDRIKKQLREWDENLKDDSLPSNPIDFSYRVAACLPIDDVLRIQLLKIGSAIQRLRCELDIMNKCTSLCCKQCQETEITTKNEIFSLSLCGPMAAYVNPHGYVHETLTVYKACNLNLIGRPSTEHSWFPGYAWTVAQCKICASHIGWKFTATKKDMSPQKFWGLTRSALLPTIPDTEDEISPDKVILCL

As a reminder, the IC50 is the concentration that inhibits the measured activity by half. For the compound `CC(=O)N1CCc2c(c(N3CCCc4cc(-c5cnn(C)c5)c(C(F)F)cc43)nn2C2CCN(C(=O)CCCCCCCNc3cccc4c3C(=O)N(C3CCC(=O)NC3=O)C4=O)CC2)C1` (centres undefined), in the assay on LNCaP, the half-inhibitory concentration (IC50) was 0.7 nM. In assay [1], the Activity was greater than 80%.

Regarding `CC(=O)N1CCc2c(c(N3CCCc4cc(-c5cnn(C)c5)c(C(F)F)cc43)nn2C2CCN(C(=O)CCCCCNc3cccc4c3C(=O)N(C3CCC(=O)NC3=O)C4=O)CC2)C1` (centres undefined), the IC50 in the assay with LNCaP stood at 44.5 nM. For the same compound, the Activity in assay [1] is less than 50%.

Regarding `CC(=O)N1CCc2c(c(N3CCCc4cc(-c5cnn(C)c5)c(C(F)F)cc43)nn2C2CCN(CCN3CCC(CCc4cccc5c4n(C)c(=O)n5C4CCC(=O)NC4=O)CC3)CC2)C1` (centres undefined), the IC50 in the assay on LNCaP worked out at 0.1 nM. The Activity in assay [1] was greater than 80%.

Turning to `CC(=O)N1CCc2c(c(N3CCCc4cc(-c5cnn(C)c5)c(C(F)F)cc43)nn2C2CCN(CCN3CCC(CCc4ccc5c(c4)n(C)c(=O)n5C4CCC(=O)NC4=O)CC3)CC2)C1` (centres undefined), the IC50 with LNCaP amounted to 0.3 nM. Further, the Activity in assay [1] was greater than 80%.

On to `CC(=O)N1CCc2c(c(N3CCCc4cc(-c5cnn(C)c5)c(C(F)F)cc43)nn2C2CCN(CCN3CCOC(CNc4cccc5c4C(=O)N(C4CCC(=O)NC4=O)C5=O)C3)CC2)C1` (centres undefined), for which the IC50 in the assay with LNCaP was determined as 0.1 nM. Further, the Activity in assay [1] is greater than 80%.

As for `CC(=O)N1CCc2c(c(N3CCCc4cc(-c5cnn(C)c5)c(C(F)F)cc43)nn2C2CCN(CCCC3CCN(c4cccc5c4C(=O)N(C4CCC(=O)NC4=O)C5=O)CC3)CC2)C1` (centres undefined), the IC50 in the assay on LNCaP stood at 0.8 nM. The Activity in assay [1] was greater than 80%.

For the compound `CC(=O)N1CCc2c(c(N3CCCc4cc(-c5cnn(C)c5)c(C(F)F)cc43)nn2C2CCN(CCN3CCN(C#Cc4ccc5c(c4)n(C)c(=O)n5C4CCC(=O)NC4=O)CC3)CC2)C1` (centres undefined), in the assay with LNCaP, the IC50 worked out at 0.1 nM. In addition, the Activity in assay [1] was greater than 80%.

With `CNC(=O)N1CCc2c(c(N3CCCc4cc(-c5cnn(C)c5)c(C(F)F)cc43)nn2C2CCN(C(=O)CCCCCNc3cccc4c3C(=O)N(C3CCC(=O)NC3=O)C4=O)CC2)C1` (centres undefined), the IC50 with LNCaP came to 0.4 nM. In assay [1], the Activity was greater than 80%.

Turning to `CNC(=O)N1CCc2c(c(N3CCCc4cc(-c5cnn(C)c5)c(C(F)F)cc43)nn2C2CCN(C(=O)CCCCCCCNc3cccc4c3C(=O)N(C3CCC(=O)NC3=O)C4=O)CC2)C1` (centres undefined), in the assay on LNCaP, the IC50 came out at 0.8 nM. In assay [1], the Activity is greater than 80%.

Take `CC(=O)N1CCc2c(c(N3CCCc4cc(-c5cnn(C)c5)c(C(F)F)cc43)nn2C2CCN(C(=O)CCCN3CCN(Cc4ccc5c(c4)n(C)c(=O)n5C4CCC(=O)NC4=O)CC3)CC2)C1` (centres undefined): the IC50 in the assay with LNCaP is 0.3 nM. Moreover, the Activity in assay [1] is greater than 80%.

Turning to `CNC(=O)N1CCc2c(c(N3CCCc4cc(-c5cnn(C)c5)c(C(F)F)cc43)nn2C2CCN(C(=O)CCCCCn3c(=O)n(C4CCC(=O)NC4=O)c4ccccc43)CC2)C1` (centres undefined), in the assay with LNCaP, the IC50 worked out at 0.9 nM. Also, the Activity in assay [1] was greater than 80%.

Turning to `CC(=O)N1CCc2c(c(N3CCCc4cc(-c5cnn(C)c5)c(C(F)F)cc43)nn2C2CCN(C(=O)CN3CCC(CCc4cccc5c4n(C)c(=O)n5C4CCC(=O)NC4=O)CC3)CC2)C1` (centres undefined), in the assay with LNCaP, the IC50 turned out to be 33.1 nM. For the same compound, the Activity in assay [1] is less than 20%.

The record behind these values is ChEMBL document CHEMBL5126617, “Application of Degradation of Cyclic-AMP Response Element Binding Protein for the Potential Treatment of Cancer” (ACS Med Chem Lett, 2022).
